Measurements from PMC2228302, “Crystal structure of Leishmania tarentolae hypoxanthine-guanine phosphoribosyltransferase” (BMC Structural Biology, 2007).
pIC50: −log10 of the molar value.

Each compound was assayed against Leishmania HGPRT (Leishmania tarentolae, UniProt Q9NJI5, D188E/G191E/H176R/L189Y/T185D/V183G/V192L/W184M) (assay: biochemical). Conditions: IC50, Leishmania HGPRT; approximate value stated in text.
Procedure: The HGPRT enzyme inhibition assay was performed for 1 min in a 1 ml reaction volume containing 100 mM Tris-HCl, 5 mM MgSO4, 1 mM PRPP, 0.04 mM guanine at pH 7.4 [41]. An extinction coefficient of 4.2 was used.

Compound | pIC50
Oc1ncnc2[nH]ncc12 [allopurinol] | ~3.70

Same assay, conditions: IC50, recombinant L. tarentolae HGPRT; 1 min, 1 mM PRPP, 0.04 mM guanine, pH 7.4; six inhibitor concentrations in triplicate

Compound | pIC50
Nc1nc2c(nc(N)n2[C@@H]2O[C@H](CO)[C@@H](O)[C@H]2O)c(=O)[nH]1 [8-aminoguanosine] | 4.03
CO/N=C(\C(=O)N[C@@H]1C(=O)N2C(C(=O)O)=C(COC(C)=O)CS[C@H]12)c1csc(N)n1 [cefotaxime] | 3.74
Oc1ncnc2[nH]ncc12 [allopurinol] | 3.71
O=C(O)c1cc(=O)[nH]c(=O)[nH]1 [Orotic acid] | 3.36

Same assay, conditions: recombinant L. tarentolae HGPRT; 1 min, 1 mM PRPP, 0.04 mM guanine, pH 7.4; six inhibitor concentrations in triplicate; read-out: IC50

Compound | pIC50
Cc1cnc(=O)[nH]c1N [5-metilcitosine] | 3.39
O=c1[nH]cnc2c([C@@H]3O[C@H](CO)[C@@H](O)[C@H]3O)n[nH]c12 [formicin B] | 3.59
O=c1[nH]c(=O)n([C@H]2C[C@H](O)[C@@H](CO)O2)cc1Br [5-bromodeoxiuridine] | 3.46
azaadenine | 3.68
Nc1nc(Cl)c2[nH]cnc2n1 [6-cloroguanine] | 3.08
Nc1ncnc2c1ccn2[C@@H]1O[C@H](CO)[C@@H](O)[C@H]1O [tubercidine] | 3.27

These compounds were tested against Leishmania tarentolae hypoxanthine-guanine phosphoribosyltransferase (Leishmania tarentolae) (assay: crystal structure; co-crystallized with GMP in 19% PEG 4000, 20.6% isopropanol, 5% glycerol, 95 mM tri-sodium citrate, pH 5.6; space group P212121; two monomers (chains A and B) in the asymmetric unit; 2.1 Å). Conditions: not given.

Compound | stoichiometry N
Leishmania tarentolae hypoxanthine-guanine phosphoribosyltransferase (enzyme) | 2
